Assay results reported in patent US11046694B2, “Compounds and methods for treating bacterial infections” (Entasis Therapeutics, Inc., priority 2018, dated 2021).
Counter-ions that a name gives are not always drawn.

Experiments:
P. aeruginosa PBP3 = P. aeruginosa PBP3 (Pseudomonas aeruginosa, UniProt G3XD46); assay type: biochemical; settings: P. aeruginosa PBP3 60 nM, BOCILLIN FL 30 nM, pH 7.0
A. baumannii (ARC3495) = assay: MIC against A. baumannii; settings: Acinetobacter baumannii, read-out: A. baumannii MIC (ARC3495) (mg/L)
[1] = tested on: K. pneumoniae (ATCC700603); assay: MIC against K. pneumoniae; settings: Klebsiella pneumoniae, ATCC700603, read-out: K. pneumoniae MIC (ATCC700603)
P. aeruginosa PBP2 = biological target: T1, P. aeruginosa PBP2 (Pseudomonas aeruginosa, UniProt Q9X6V3); assay type: biochemical; settings: P. aeruginosa PBP2 300 nM, BOCILLIN FL 30 nM, pH 6.2
T1 sequence (Q9X6V3 1-646): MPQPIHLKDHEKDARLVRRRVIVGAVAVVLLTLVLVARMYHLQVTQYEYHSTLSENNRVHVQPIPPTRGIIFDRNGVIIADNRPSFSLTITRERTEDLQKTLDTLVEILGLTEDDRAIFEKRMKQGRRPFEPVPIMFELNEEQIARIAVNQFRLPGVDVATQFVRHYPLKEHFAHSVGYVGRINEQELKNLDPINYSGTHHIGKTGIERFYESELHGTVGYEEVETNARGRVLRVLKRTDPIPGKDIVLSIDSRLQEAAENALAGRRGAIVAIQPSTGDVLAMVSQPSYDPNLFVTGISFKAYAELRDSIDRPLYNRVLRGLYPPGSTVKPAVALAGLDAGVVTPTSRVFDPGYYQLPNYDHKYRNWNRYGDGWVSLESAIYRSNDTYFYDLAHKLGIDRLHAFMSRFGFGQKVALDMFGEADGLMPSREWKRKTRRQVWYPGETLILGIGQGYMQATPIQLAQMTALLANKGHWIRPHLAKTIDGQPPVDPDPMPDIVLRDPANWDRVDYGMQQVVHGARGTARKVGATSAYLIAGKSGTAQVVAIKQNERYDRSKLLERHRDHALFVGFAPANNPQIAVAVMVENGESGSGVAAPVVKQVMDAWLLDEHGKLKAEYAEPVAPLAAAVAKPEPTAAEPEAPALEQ

E. coli (ATCC25922) = assay: MIC against E. coli; settings: Escherichia coli, ATCC25922, read-out: E. coli MIC (ATCC25922) (mg/L)
P. aeruginosa WT (PAO1) = assay: MIC, CLSI broth microdilution, P. aeruginosa; assay type: cell-based; settings: Pseudomonas aeruginosa, PAO1; CLSI broth microdilution; read-out: P. aeruginosa WT (PAO1) MIC
P. aeruginosa PBP1a = P. aeruginosa PBP1a (Pseudomonas aeruginosa, UniProt Q07806); assay type: biochemical; settings: P. aeruginosa PBP1a 60 nM, BOCILLIN FL 30 nM, pH 7.0
Sequence of P. aeruginosa PBP1a (Q07806 whole entry): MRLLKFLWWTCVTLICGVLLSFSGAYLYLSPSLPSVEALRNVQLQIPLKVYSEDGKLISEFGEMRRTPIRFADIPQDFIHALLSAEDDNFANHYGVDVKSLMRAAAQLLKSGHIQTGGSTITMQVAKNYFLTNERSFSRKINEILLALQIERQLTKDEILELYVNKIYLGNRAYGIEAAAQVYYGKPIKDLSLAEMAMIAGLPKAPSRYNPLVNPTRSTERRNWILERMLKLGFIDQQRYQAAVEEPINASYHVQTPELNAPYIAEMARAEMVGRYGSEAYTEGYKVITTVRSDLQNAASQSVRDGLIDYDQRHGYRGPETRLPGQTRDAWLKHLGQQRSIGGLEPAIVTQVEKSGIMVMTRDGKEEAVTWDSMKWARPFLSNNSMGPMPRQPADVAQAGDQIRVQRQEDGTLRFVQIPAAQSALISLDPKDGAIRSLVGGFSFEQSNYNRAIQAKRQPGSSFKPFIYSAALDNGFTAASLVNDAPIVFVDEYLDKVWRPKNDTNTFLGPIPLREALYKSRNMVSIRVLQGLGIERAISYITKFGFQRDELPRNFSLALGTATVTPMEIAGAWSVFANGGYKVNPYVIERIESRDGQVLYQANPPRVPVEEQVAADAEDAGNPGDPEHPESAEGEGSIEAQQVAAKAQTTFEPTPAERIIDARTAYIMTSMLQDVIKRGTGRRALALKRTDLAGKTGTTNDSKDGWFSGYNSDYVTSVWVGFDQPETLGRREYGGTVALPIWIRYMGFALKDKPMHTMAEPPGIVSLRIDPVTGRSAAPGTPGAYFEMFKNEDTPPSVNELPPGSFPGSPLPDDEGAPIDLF

Sequence of P. aeruginosa PBP3 (G3XD46 whole entry): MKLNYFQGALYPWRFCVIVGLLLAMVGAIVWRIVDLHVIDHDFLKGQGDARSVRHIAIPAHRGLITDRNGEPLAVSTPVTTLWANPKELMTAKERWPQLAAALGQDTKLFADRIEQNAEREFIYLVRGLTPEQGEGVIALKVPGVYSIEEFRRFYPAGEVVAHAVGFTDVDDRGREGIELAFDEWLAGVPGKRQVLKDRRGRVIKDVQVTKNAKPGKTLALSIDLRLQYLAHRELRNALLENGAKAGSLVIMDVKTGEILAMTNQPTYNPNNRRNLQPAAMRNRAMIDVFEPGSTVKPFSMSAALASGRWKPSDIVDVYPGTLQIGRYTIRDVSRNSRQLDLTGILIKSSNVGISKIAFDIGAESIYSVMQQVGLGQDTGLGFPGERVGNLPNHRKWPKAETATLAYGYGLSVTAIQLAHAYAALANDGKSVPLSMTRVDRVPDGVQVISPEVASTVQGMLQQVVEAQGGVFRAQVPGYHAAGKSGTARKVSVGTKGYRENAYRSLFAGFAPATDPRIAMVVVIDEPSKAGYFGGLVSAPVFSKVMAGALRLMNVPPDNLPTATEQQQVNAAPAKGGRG

| Compound | PBP3 acylation rate, k(on) (M^−1 · s^−1) (P. aeruginosa PBP3) | MIC (A. baumannii (ARC3495)) [mg/L] | MIC [1] [µg/mL] | PBP2 acylation rate, k(on) (M^−1 · s^−1) (P. aeruginosa PBP2) | MIC (E. coli (ATCC25922)) [mg/L] | MIC (P. aeruginosa WT (PAO1)) [µg/mL] | PBP1a acylation rate, k(on) (M^−1 · s^−1) (P. aeruginosa PBP1a) |
| --- | --- | --- | --- | --- | --- | --- | --- |
| CN/C(=N\OC)[C@@H]1c2c(cnn2C)[C@@H]2CN1C(=O)N2OS(=O)(=O)O [Example 4, (4R,8S)-8-((Z)—N′-methoxy-N-methylcarbamimidoyl)-1-methyl-6-oxo-4,8-dihydro-1H-4,7-methanopyrazolo[3,4-e][1,3]diazepin-5(6H)-yl hydrogen sulfate] | *** (*** represents a k(on) > 10,000 M^−1 · s^−1) | > 16 | > 16 | * (* represents a k(on) < 100 M^−1 · s^−1) | < 8 | > 16 | ** (** represents a k(on) of 100 to 10,000 M^−1 · s^−1) |
| Cn1ncc2c1[C@@H](C1=NOC(CO)C1)N1C[C@@H]2N(OS(=O)(=O)O)C1=O (stereo partly drawn) [Example 38, (4R,8S)-8-(5-(hydroxymethyl)-4,5-dihydroisoxazol-3-yl)-1-methyl-6-oxo-4,8-dihydro-1H-4,7-methanopyrazolo[3,4-e][1,3]diazepin-5(6H)-yl hydrogen sulfate] | * (* represents a k(on) < 100 M^−1 · s^−1) | > 16 | > 16 | * (* represents a k(on) < 100 M^−1 · s^−1) | 8 to 16 | > 16 | * (* represents a k(on) < 100 M^−1 · s^−1) |
| CN/C(=N\O)[C@@H]1c2c(cnn2CCN)[C@@H]2CN1C(=O)N2OS(=O)(=O)O [Example 47, (4R,8S)-1-(2-aminoethyl)-8-((Z)—N′-hydroxy-N-methylcarbamimidoyl)-6-oxo-4,8-dihydro-1H-4,7-methanopyrazolo[3,4-e][1,3]diazepin-5(6H)-yl hydrogen sulfate] | *** (*** represents a k(on) > 10,000 M^−1 · s^−1) | < 8 | < 8 | * (* represents a k(on) < 100 M^−1 · s^−1) | < 8 | < 8 | ** (** represents a k(on) of 100 to 10,000 M^−1 · s^−1) |
| Cn1ncc2c1[C@@H](/C(=N/O)NCc1nc(N)cs1)N1C[C@@H]2N(OS(=O)(=O)O)C1=O [Example 51, (4R,8S)-8-((Z)—N-((4-aminothiazol-2-yl)methyl)-N′-hydroxycarbamimidoyl)-1-methyl-6-oxo-4,8-dihydro-1H-4,7-methanopyrazolo[3,4-e][1,3]diazepin-5(6H)-yl hydrogen sulfate] | ** (** represents a k(on) of 100 to 10,000 M^−1 · s^−1) | > 16 | > 16 | * (* represents a k(on) < 100 M^−1 · s^−1) | < 8 | > 16 | ** (** represents a k(on) of 100 to 10,000 M^−1 · s^−1) |
| Cn1ncc2c1[C@@H](/C(=N/OC(=O)NC(C)(C)C(=O)O)NCc1nc(N)cs1)N1C[C@@H]2N(OS(=O)(=O)O)C1=O [Example 52, (Z)-1-(4-aminothiazol-2-yl)-8,8-dimethyl-3-((4R,8S)-1-methyl-6-oxo-5-(sulfooxy)-4,5,6,8-tetrahydro-1H-4,7-methanopyrazolo[3,4-e][1,3]diazepin-8-yl)-6-oxo-5-oxa-2,4,7-triazanon-3-en-9-oic acid] | ** (** represents a k(on) of 100 to 10,000 M^−1 · s^−1) | > 16 | > 16 | * (* represents a k(on) < 100 M^−1 · s^−1) | < 8 | > 16 | ** (** represents a k(on) of 100 to 10,000 M^−1 · s^−1) |
| Cn1ncc2c1[C@@H](c1noc(=O)n1Cc1nc(N)cs1)N1C[C@@H]2N(OS(=O)(=O)O)C1=O [Example 53, (4R,8S)-8-(4-((4-aminothiazol-2-yl)methyl)-5-oxo-4,5-dihydro-1,2,4-oxadiazol-3-yl)-1-methyl-6-oxo-4,8-dihydro-1H-4,7-methanopyrazolo[3,4-e][1,3]diazepin-5(6H)-yl hydrogen sulfate] | ** (** represents a k(on) of 100 to 10,000 M^−1 · s^−1) | > 16 | > 16 | * (* represents a k(on) < 100 M^−1 · s^−1) | < 8 | > 16 | ** (** represents a k(on) of 100 to 10,000 M^−1 · s^−1) |
| CCN1CCN(C(=O)NC/C(=N\O)[C@@H]2c3c(cnn3C)[C@@H]3CN2C(=O)N3OS(=O)(=O)O)C(=O)C1=O [Example 55, (4R,8S)-8-((E)-2-(4-ethyl-2,3-dioxopiperazine-1-carboxamido)-1-(hydroxyimino)ethyl)-1-methyl-6-oxo-4,8-dihydro-1H-4,7-methanopyrazolo[3,4-e][1,3]diazepin-5(6H)-yl hydrogen sulfate] | * (* represents a k(on) < 100 M^−1 · s^−1) | > 16 | > 16 | * (* represents a k(on) < 100 M^−1 · s^−1) | < 8 | > 16 | * (* represents a k(on) < 100 M^−1 · s^−1) |
| Cn1ncc2c1[C@@H](/C(CNS(N)(=O)=O)=N/O)N1C[C@@H]2N(OS(=O)(=O)O)C1=O [Example 56, (4R,8S)-8-((E)-1-(hydroxyamino)-2-(sulfamoyl)amino)ethyl)-1-methyl-6-oxo-4,8-dihydro-1H-4,7-methanopyrazolo[3,4-e][1,3]diazepin-5(6H)-yl hydrogen sulfate] | ** (** represents a k(on) of 100 to 10,000 M^−1 · s^−1) | > 16 | > 16 | * (* represents a k(on) < 100 M^−1 · s^−1) | < 8 | > 16 | ** (** represents a k(on) of 100 to 10,000 M^−1 · s^−1) |
| Cn1ncc2c1[C@@H](c1noc(=O)n1C)N1C[C@@H]2N(OS(=O)(=O)O)C1=O [Example 66, ((4R,8S)-1-methyl-8-(4-methyl-5-oxo-4,5-dihydro-1,2,4-oxadiazol-3-yl)-6-oxo-4,8-dihydro-1H-4,7-methanopyrazolo[3,4-e][1,3]diazepin-5(6H)-yl hydrogen sulfate] | ** (** represents a k(on) of 100 to 10,000 M^−1 · s^−1) | > 16 | > 16 | * (* represents a k(on) < 100 M^−1 · s^−1) | < 8 | > 16 | ** (** represents a k(on) of 100 to 10,000 M^−1 · s^−1) |
| Cn1ncc2c1[C@@H](/C(=N/O)C(N)=O)N1C[C@@H]2N(OS(=O)(=O)O)C1=O [Example 67, (4R,8S)-8-((Z)-2-amino-1-(hydroxyimino)-2-oxoethyl-1-methyl-6-oxo-4,8-dihydro-1H-4,7-methanopyrazolo[3,4-e][1,3]diazepin-5(6H)-yl hydrogen sulfate] | ** (** represents a k(on) of 100 to 10,000 M^−1 · s^−1) | > 16 | > 16 | * (* represents a k(on) < 100 M^−1 · s^−1) | < 8 | > 16 | * (* represents a k(on) < 100 M^−1 · s^−1) |
| CN/C(=N\O)[C@@H]1c2c(cnn2CCCCN)[C@@H]2CN1C(=O)N2OS(=O)(=O)O [Example 68, (4R,8S)-1-(4-aminobutyl)-8-((Z)—N′-hydroxy-N-methylcarbamimidoyl)-6-oxo-4,8-dihydro-1H-4,7-methanopyrazolo[3,4-e][1,3]diazepin-5(6H)-yl hydrogen sulfate] | ** (** represents a k(on) of 100 to 10,000 M^−1 · s^−1) | 8 to 16 | > 16 | * (* represents a k(on) < 100 M^−1 · s^−1) | 8 to 16 | < 8 | * (* represents a k(on) < 100 M^−1 · s^−1) |
| CC(=O)O/N=C(\N)[C@@H]1c2c(cnn2C)[C@@H]2CN1C(=O)N2OS(=O)(=O)O [Example 70, Pyridium (4R,8S)-8-((Z)—N′-acetoxycarbamimidoyl)-1-methyl-6-oxo-4,8-dihydro-1H-4,7-methanopyrazolo[3,4-e][1,3]diazepin-5(6H)-yl hydrogen sulfate] | ** (** represents a k(on) of 100 to 10,000 M^−1 · s^−1) | > 16 | > 16 | * (* represents a k(on) < 100 M^−1 · s^−1) | 8 to 16 | > 16 | * (* represents a k(on) < 100 M^−1 · s^−1) |
